Measured values published in patent publication US6737383B1, “Herbicidal oxadiazolidines” (priority 1999, dated 2004).

Columns and labels:
[1] = tested on: velvetleaf; test: Test B pre/postemergence velvetleaf; format: in vivo, Abutilon theophrasti
Summary of the method: (§1)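 Herbicidal effect was estimated by eye on a ten-point control scale after plants spent twelve to sixteen days in a greenhouse following soil or foliar treatment. Foliar sprays targeted plants at one to four leaves; all doses were formulated in a non-phytotoxic solvent with surfactant.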

[2] = tested on: duck salad; test: Test B flood test duck salad; format: in vivo, Heteranthera limosa
Summary of the method: (§2)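 Read-out is a visual response score from 0 (no effect) to 10 (complete control), assigned by comparison with untreated controls. Treatment was applied at the 2-leaf stage, and plants stayed in the greenhouse for twelve to sixteen days before scoring.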

[3] = tested on: soybean; test: Test B pre/postemergence soybean; format: in vivo, Glycine max; details: for Soybean plant response rating (0 to 10 scale): 0 is no effect
Summary of the method: as §1

[4] = tested on: smallflower flatsedge; test: Test B flood test smallflower flatsedge; format: in vivo, Cyperus difformis
Summary of the method: as §2

[5] = Preemergence, Rate 62 g/ha, scale of 0 to 10 where 0 is no effect and 10 is complete control
[6] = Preemergence, Rate 250 g/ha, scale 0 to 10, 0 is no effect, 10 is complete control
[7] = Preemergence, Rate 500 g/ha, scale of 0 to 10 where 0 is no effect and 10 is complete control
[8] = Rate 62 g/ha, Postemergence, scale of 0 to 10 where 0 is no effect and 10 is complete control
[9] = Rate 125 g/ha, Postemergence, scale 0 to 10
[10] = Rate 31 g/ha, Pre-emergence section (flood test species), scale 0 to 10
[11] = Rate 62 g/ha, headed Pre-emergence (flood test species), scale 0 to 10 (0 no effect, 10 complete control)
[12] = Rate 125 g/ha, Pre-emergence, flood test species, scale 0 to 10 where 0 is no effect and 10 is complete control
[13] = Rate 250 g/ha, Pre-emergence, flood-test species, scale 0 to 10, 0 is no effect, 10 is complete control
[14] = Rate 500 g/ha, headed Pre-emergence (flood test species), scale 0 to 10 (0 no effect, 10 complete control)
[15] = Preemergence, Rate 125 g/ha, 10 is complete control
[16] = Rate 500 g/ha, Postemergence, scale 0 to 10
[17] = Rate 500 g/ha, Pre-emergence, flood test species, scale 0 to 10 (0 no effect, 10 complete control)
[18] = Postemergence, Rate 1000 g/ha, scale 0 to 10 (0 no effect, 10 complete control)
[19] = Preemergence, Rate 500 g/ha, scale 0 to 10 (0 no effect, 10 complete control)
[20] = Rate 1000 g/ha, Preemergence, scale 0 to 10 (0 no effect, 10 complete control)
[21] = Postemergence, Rate 62 g/ha, scale 0 to 10, 0 is no effect, 10 is complete control
[22] = Postemergence, Rate 250 g/ha, scale 0 to 10, 0 no effect, 10 complete control
[23] = Preemergence, Rate 62 g/ha, scale 0 to 10 (0 no effect, 10 complete control)
[24] = Preemergence, Rate 125 g/ha, scale 0 to 10 (0 no effect, 10 complete control)
[25] = Preemergence, Rate 250 g/ha, scale of 0 to 10 where 0 is no effect and 10 is complete control
[26] = Preemergence, Rate 500 g/ha, scale 0 (no effect) to 10 (complete control)
[27] = Rate 125 g/ha, Postemergence, scale 0 to 10, 0 no effect, 10 complete control
[28] = Rate 500 g/ha, Postemergence, scale 0 to 10, 0 no effect, 10 complete control
[29] = Rate 125 g/ha, Postemergence section (flood test species), scale 0 to 10, 0 no effect, 10 complete control
[30] = Rate 500 g/ha, listed under Postemergence (flood test species), scale 0 to 10, 0 no effect, 10 complete control
[31] = flood test, listed under Postemergence, Rate 250 g/ha, scale 0 to 10, 0 no effect, 10 complete control

Structure (SMILES): Cc1nc(C)c(-n2c(=O)on(C(=O)N(c3ccc(Cl)cc3)C(C)C)c2=O)s1 [Compound 196]
- Velvetleaf plant response rating [1, 5]: 0
- Velvetleaf plant response rating [1, 6]: 0
- Plant response rating, Velvetleaf [1, 7]: 0
- Velvetleaf plant response rating [1, 8]: 0
- Velvetleaf plant response rating [1, 9]: 0
- Plant response rating (0 to 10; 0 is no effect, 10 is complete control), Velvetleaf ([1]; Rate 250 g/ha, Postemergence): 0
- Ducksalad plant response rating [2, 10]: 0
- Ducksalad plant response rating [2, 11]: 0
- Ducksalad plant response rating [2, 12]: 0
- Ducksalad plant response rating [2, 13]: 0
- Plant response rating, Ducksalad [2, 14]: 0
- Soybean plant response rating [3, 5]: 0
- Soybean plant response rating (0 to 10 scale) [3, 15]: 0
- Soybean plant response rating [3, 6]: 0
- Plant response rating, Soybean [3, 7]: 0
- Soybean plant response rating [3, 8]: 0
- Soybean plant response rating [3, 9]: 0
- Plant response rating (0 to 10; 0 is no effect, 10 is complete control), Soybean ([3]; Rate 250 g/ha, Postemergence): 0
- Soybean plant response rating [3, 16]: 0
- S. Flatsedge plant response rating [4, 10]: 0
- S. Flatsedge plant response rating [4, 11]: 0
- S. Flatsedge plant response rating [4, 12]: 0
- S. Flatsedge plant response rating [4, 13]: 0
- S. Flatsedge plant response rating [4, 17]: 0

Structure (SMILES): CC(C)N(C(=O)n1oc(=O)n(C2CCCC(C(F)(F)F)C2)c1=O)c1ccc(F)cc1 (stereo not shown) [Compound 184]
- Velvetleaf plant response rating [1, 18]: 2
- Velvetleaf plant response rating [1, 5]: 0
- Velvetleaf plant response rating [1, 6]: 2
- Velvetleaf plant response rating [1, 19]: 7
- Velvetleaf plant response rating [1, 9]: 1
- Plant response rating (0 to 10; 0 is no effect, 10 is complete control), Velvetleaf ([1]; Rate 250 g/ha, Postemergence): 1
- Velvetleaf plant response rating [1, 16]: 5
- Plant response rating, Velvetleaf [1, 20]: 3
- Ducksalad plant response rating [2, 11]: 0
- Ducksalad plant response rating [2, 12]: 0
- Ducksalad plant response rating [2, 13]: 0
- Plant response rating, Ducksalad [2, 14]: 0
- Ducksalad plant response rating ([2]; Rate 1000 g/ha, Pre-emergence (as headed), scale 0 to 10): 0
- Soybean plant response rating [3, 18]: 4
- Soybean plant response rating [3, 5]: 0
- Soybean plant response rating (0 to 10 scale) [3, 15]: 0
- Soybean plant response rating [3, 6]: 0
- Soybean plant response rating [3, 19]: 0
- Soybean plant response rating [3, 8]: 1
- Soybean plant response rating [3, 9]: 1
- Plant response rating (0 to 10; 0 is no effect, 10 is complete control), Soybean ([3]; Rate 250 g/ha, Postemergence): 3
- Soybean plant response rating [3, 16]: 3
- Plant response rating, Soybean [3, 20]: 0
- S. Flatsedge plant response rating ([4]; Pre-emergence, Rate 1000 g/ha, scale 0 to 10 (0 no effect, 10 complete control)): 0
- S. Flatsedge plant response rating [4, 11]: 0
- S. Flatsedge plant response rating [4, 12]: 0
- S. Flatsedge plant response rating [4, 13]: 0
- S. Flatsedge plant response rating [4, 17]: 0

Structure (SMILES): Cc1cccc(C(C)C)c1-n1c(=O)on(C(=O)N(c2ccccc2)C(C)C)c1=O [Compound 66]
- Velvetleaf plant response rating [1, 21]: 0
- Velvetleaf plant response rating [1, 22]: 0
- Velvetleaf plant response rating [1, 23]: 0
- Plant response rating, Velvetleaf [1, 24]: 0
- Plant response rating, Velvetleaf [1, 25]: 0
- Velvetleaf plant response rating [1, 26]: 0
- Velvetleaf plant response rating [1, 27]: 0
- Velvetleaf plant response rating [1, 28]: 2
- Ducksalad plant response rating [2, 21]: 0
- Ducksalad plant response rating [2, 29]: 0
- Ducksalad plant response rating [2, 30]: 2
- Ducksalad plant response rating [2, 31]: 0
- Soybean plant response rating [3, 21]: 1
- Soybean plant response rating [3, 22]: 2
- Soybean plant response rating [3, 23]: 0
- Plant response rating, Soybean [3, 24]: 0
- Plant response rating, Soybean [3, 25]: 0
- Soybean plant response rating [3, 26]: 0
- Soybean plant response rating [3, 27]: 1
- Soybean plant response rating [3, 28]: 3
- S. Flatsedge plant response rating [4, 21]: 0
- S. Flatsedge plant response rating [4, 29]: 0
- S. Flatsedge plant response rating [4, 30]: 3
- S. Flatsedge plant response rating [4, 31]: 2
